Key:
[1] = system: HT1080 cells (a human fibrosarcoma cell line); test: In vivo tumor growth PD model, tumor and plasma VEGF levels by human VEGF ELISA; design: species or system nude mice; settings: 10 mg/kg 3×/week, vs vehicle, FIG. 5
Procedure: (§1) Compounds of the invention also show activity in the following pharmacodynamic model that assesses tumor VEGF levels. Briefly, HT1080 cells (a human fibrosarcoma cell line) may be implanted subcutaneously in nude mice. After seven days, mice may be administrated compounds orally at a desired dosage range, e.g., 200 mg/kg/day, for seven days. The tumors may then be excised from mice, weighed and homogenized in Tris-HCl buffer containing proteinase inhibitors. Moulder et al., Cancer Res. 61(24):8887-95 (2001). Tumor VEGF levels are subsequently measured using a human VEGF ELISA kit (R&D System). Protein concentrations of the homogenates are measured with a Bio-Rad Protein assay kit and tumor VEGF levels are normalized to the protein concentrations.
(§2) In similarly conducted experiments, compounds of the invention are shown to reduce lung cancer tumor growth (at a dosage of 3 mg/kg, twice a day, or 30 mg/kg, twice a day) (FIG. 1), Ewing's sarcoma and neuroblastoma tumor growth (at a dosage of 30 mg/kg, once a day) (FIG. 2), fibrosarcoma tumor growth (at a dosage of 10 mg/kg 3×/week) (FIG. 3), and human skin malignant melanoma (at a dosage of 10 mg/kg 5×/week) (FIG. 4) as compared to vehicle. Furthermore, the compounds of the invention are shown to reduce VEGF plasma and tumor levels in fibrosarcoma tumors as compared to vehicle (at a dosage of 10 mg/kg 3×/week) (FIG. 5).

recombinant PDE5 = molecular target: T1, recombinant PDE5 (Homo sapiens, UniProt O76074); test: PDE5 activity, High-Efficiency Fluorescence Polarization Assay (HEFP); type: biochemical; settings: 45 minutes at room temperature, vs positive control Tadalafil, FIG. 12
T1 construct: purchased CalBioChem
Procedure: The compounds of the invention are tested to assess their affect on phosphodiesterase 5 (PDE5) activity. The affect on PDE5 activity is determined using the High-Efficiency Fluorescence Polarization Assay (HEFP) kit from Molecular Devices. The HEFP assay measures the activity of PDE-5 by using fluorescein-labeled derivatives of cGMP as a substrate. When hydrolyzed by PDE-5, fluorescein-labeled cGMP derivatives are able to bind to a binding reagent. The cGMP substrate:binding reagent complex results in a highly polarized fluorescent state.
After combining recombinant PDE5 (CalBioChem) and the cGMP substrate, the mixture is incubated at room temperature for 45 minutes in the presence or absence of compounds or a positive control (Tadalafil). The reaction is stopped upon addition of the binding reagent. Fluorescence polarization is determined on a Viewlux using a setting recommended by the manufacturer.

[2] = system: Ewing's sarcoma (SK-NEP-1) and neuroblastoma (SY5Y and NGP) tumors; test: Angiogenesis in excised tumors, immunochemistry with antibodies to Collagen IV; type: in vivo, mice; settings: Collagen IV staining of excised tumors, FIG. 10
Source text: The tumors excised from the mice can also be used in immunochemistry experiments to determine levels of angiogenesis. […] SK-NEP-1 cells were previously believed to be a useful Wilms tumor model.

fibrosarcoma tumor = test: Fibrosarcoma tumor growth in vivo; design: species or system nude mice; settings: 10 mg/kg 3×/week, vs vehicle, FIG. 3
Procedure: as §1, §2

lung cancer tumor = test: Lung cancer tumor growth in vivo; design: species or system nude mice; settings: 3 mg/kg twice a day or 30 mg/kg twice a day, vs vehicle, FIG. 1
Procedure: as §1, §2

[3] = system: human skin malignant melanoma; test: Malignant melanoma tumor growth in vivo; design: species or system nude mice; settings: 10 mg/kg 5×/week, vs vehicle, FIG. 4
Procedure: as §1, §2

human cervical carcinoma = test: Cervical cancer tumor growth in vivo, alone or with Taxol; design: species or system nude mice; settings: alone or in combination with Taxol (paclitaxel), FIG. 7
[4] = system: Ewing's sarcoma (SK-NEP-1); test: Ewing's sarcoma tumor growth in vivo; design: species or system nude mice; settings: 30 mg/kg once a day, vs vehicle, FIG. 2
Procedure: as §1
as §2, with “5). […]” for “5).”

[5] = system: hypoxia-inducible endogenous VEGF expression in HeLa cells; test: Hypoxia-inducible endogenous VEGF expression, VEGF ELISA of conditioned media (dose-response EC50); type: cell-based; settings: Homo sapiens, HeLa cells under hypoxic conditions
Outline: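 Secreted VEGF was quantified by ELISA against a per-assay standard curve after HeLa cells spent 24-48 h in 1% O2, 5% CO2, N2 balance with or without compound. Across a series of, e.g., seven concentrations, percentage inhibition (max 100%, min 0%) gave EC50 and CC50 values.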

[6] = system: neuroblastoma (SY5Y and NGP); test: Neuroblastoma tumor growth in vivo; design: species or system nude mice; settings: 30 mg/kg once a day, vs vehicle, FIG. 2
Procedure: as §1
as §2, with “5). […]” for “5).”

VEGF mRNA = VEGF mRNA levels by Real-Time PCR under hypoxic conditions; type: cell-based, Human; settings: FIG. 11
Procedure: Human solid tumor cells are treated with various concentrations of a compound of the present invention or a control under hypoxic conditions. Actinomycin D blocks transcription and is used as a control. Total RNA is isolated using the RNeasy kit (Qiagen, Inc., Valencia, Calif., USA) or an acid-guanidinium thiocyanate-phenol-chloroform based method (See Chomczynski, P. and Sacchi, N., Anal. Biochem. 162: 156 (1987), hereby incorporated by reference).
Concentration of total RNA can be determined using the RiboGreen® fluorescent dye (Molecular Probes, Inc., Eugene, Oreg., USA) with the VersaFluor Fluorometer System (BioRad, Hercules, Calif., USA). Quality and integrity of total RNA can be assessed on 1% formaldehyde-agarose gels. First-strand cDNA was synthesized using 1 μg of total RNA (DNase-treated) in a 20 μl reverse transcriptase reaction mixture (Leclerc G J, Barredo J C, Clin. Cancer Res. 2001, 7:942-951, which is hereby incorporated by reference). A region of the VEGF mRNA is amplified using PCR primers. The cDNA amplified fragment (approximately 300 basepairs) is cloned into a vector such as the pCR2.1-TOPO vector (Invitrogen, Carlsbad, Calif., USA) to generate a plasmid. […] Real-Time quantitations are performed using the BIO-RAD iCycler iQ system (BioRad, Hercules, Calif., USA). The fluorescence threshold value can be calculated using the iCycle iQ system software.

VEGF = test: Tumor and plasma VEGF expression in vivo, alone or with Avastin; design: species or system nude mice; settings: alone or in combination with Avastin, FIG. 9
Procedure: as §1, §2

colon cancer tumor = test: Colon cancer tumor growth in vivo, alone or with 5-FU; design: species or system nude mice; settings: alone or in combination with 5-FU (fluorouracil), FIG. 6
tumor = test: Tumor growth in vivo, alone or with Avastin; design: species or system nude mice; settings: alone or in combination with Avastin (bevacizumab), FIG. 8
Procedure: as §1, §2

COc1ccc(C2c3[nH]c4ccc(Cl)cc4c3CCN2C(=O)Oc2ccc(Cl)cc2)cc1 (stereo not drawn) [Compound 10] was tested, and the “VEGF expression in a fibrosarcoma tumor (tumor VEGF levels)” value [1] was “inhibition of VEGF expression”, the PDE-5 activity (recombinant PDE5) was “do not inhibit the activity of PDE-5” and the angiogenesis [2] was “inhibition of angiogenesis”. The fibrosarcoma tumor growth (fibrosarcoma tumor) was “inhibition of fibrosarcoma tumor growth”, the “lung cancer tumor growth” value (lung cancer tumor) was “inhibition of lung cancer tumor growth” and the “malignant melanoma tumor growth” value [3] was “inhibition of malignant melanoma tumor growth”. The “cervical cancer tumor growth” value (human cervical carcinoma) was “inhibition of cervical cancer tumor growth”, the “Ewing's sarcoma tumor growth” value [4] was “inhibition” and the EC50 [5] was < 8 nM. For the same compound, the neuroblastoma tumor growth [6] was “inhibition”, the “VEGF mRNA levels” value (VEGF mRNA) was “does not affect VEGF mRNA levels” and the “plasma VEGF expression” value (VEGF) was “inhibition”. The “tumor VEGF expression” value (VEGF) was “inhibition”, the “colon cancer tumor growth” value (colon cancer tumor) was “inhibition of colon cancer tumor growth” and the tumor growth (tumor) was “inhibition of tumor growth”.
